Data: patent USRE37781E1, “Substituted cyclic carbonyls and derivatives thereof useful as retroviral protease inhibitors” (DuPont Pharmaceuticals Company, priority 1991, dated 2002)
≈ marks a conversion by molar mass, not a printed value. Where “and” joins values, the source holds several entries; their conditions need not be identical. Equal entries are not always repeated. Where two headings read alike, the source gives them in different places.

Tests used:
HIV-1 (RF) in MT-2 cells = assay: microbe, parasite or virus in culture; assay type: cell-based
Summary of the method: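 Read-out: gag and pol viral RNA captured by 5′-biotinylated oligonucleotides on streptavidin-coated wells, detected with alkaline phosphatase-linked reporter oligonucleotides, calibrated against BH10 in vitro transcripts. Virus stocks (RF, MN, IIIB) come from H9 cultures; MT-2 host cells kept in RPMI 1640, 5% FCS.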

[1] = target: single-chain tethered dimer of HIV protease (Human immunodeficiency virus 1, UniProt P04585); assay: biochemical; assay type: biochemical
Experimental: HIV Protease Inhibition Assay—HPLC Method
Active protease was prepared as described therein by extraction with 67% acetic acid, dilution 33-fold with water, dialysis against water and then against a “refolding buffer” consisting of 20 mM MES, 1 mM dithiothreitol and 10% glycerol. Protease was stored as a stock preparation at 10 uM in refolding buffer.
Substrate: Peptide of sequence: aminobenzoyl-Ala-Thr-His-Gln-Val-Tyr-Phe(NO2)-Val-Arg-Lys-Ala containing p-nitrophenylalanine, was prepared by solid phase synthesis as previously described Cheng et al., op.cit. Stock solutions of 2 mM substrate were prepared in DMSO.
Inhibitory compounds were dissolved in sufficient DMSO to make 3 mM stock solutions. All further dilutions were prepared in “assay buffer”: 1M NaCl, 50 mM MES, pH 5.5, 1 mM EDTA, 1 mM DTT, […] glycerol.
Enzyme reaction: In a 2 ml screw-cap centrifuge tube were added 50 ul protease (final concentration 0.25 nM) and 0.1 ml inhibitory compound (final concentration […]). After 15 min preincubation at room temperature, the reaction was started with the addition of 0.05 ml substrate (final concentration 5 uM). Incubation was carried out at 30 C. for 1 hr. The reaction was stopped with 1 ml 0.1M ammonium hydroxide.
HPLC measurement of product formation: The product (aminobenzoyl-Ala-Thr-His-Gln-Val-Tyr) was separated from substrate on a Pharmacia MonoQ anion exchange column. The injection volume was 0.2 ml. The mobile phases were: A (20 mM trisHCl, pH 9.0, 0.02% sodium Azide, 10% acetonitrile), B (20 mM tris HCl, pH 9.0, 0.02% sodium azide, 0.5M ammonium formate, 10% acetonitrile). The mobile phases were pumped at 1 ml/min, with a gradient from 0 to 30% B in 5 min, 100% B for 4 min to wash the column, and a re-equilibration for 4 min. The retention time of the product was 3.6 min. Detection with a Shimadzu model RF535 fluorescence monitor was at 330 nm (excitation) and 430 (emission).

[2] = Human immunodeficiency virus 1, MT2, HIV RNA assay, HIV-1 infected MT-2 cells, class symbols, read-out: IC90

With O=C1N(Cc2cccnc2)C(Cc2ccccc2)C(O)C(O)C(Cc2ccccc2)N1Cc1ccc2ccccc2c1 (centres unmarked) [Example 5H] the melting point was 94 to 96 °C, the IC90 (HIV-1 (RF) in MT-2 cells; [2]) was < 10 µg/mL and the Ki [1] was < 0.01 µM.

In the case of C=CCOc1cccc(CN2C(=O)N(Cc3cccc(OCC=C)c3)C(Cc3ccccc3)C(O)C(O)C2Cc2ccccc2)c1 (centres unmarked) [Example 5L], the melting point is reported as 170 to 172 °C, the IC90 (HIV-1 (RF) in MT-2 cells; [2]) is reported as > 100 µg/mL and the Ki [1] is reported as < 0.01 µM.

In the case of C=CCOc1cccc(CN2C(=O)N(Cc3cccc(O)c3)C(Cc3ccccc3)C(O)C(O)C2Cc2ccccc2)c1 (centres unmarked) [Example 5M], the melting point is reported as 78 to 79 °C, the IC90 (HIV-1 (RF) in MT-2 cells; [2]) is reported as < 10 µg/mL and the Ki [1] is reported as < 0.01 µM.

With CCOc1cccc(CN2C(=O)N(Cc3cccc(OCC)c3)C(Cc3ccccc3)C(O)C(O)C2Cc2ccccc2)c1 (centres unmarked) [Example 5N] the melting point was 185 to 186 °C, the IC90 (HIV-1 (RF) in MT-2 cells; [2]) was > 100 µg/mL and the Ki [1] was 0.01 to 1 µM.

In the case of O=C1N(Cc2ccc(OCc3ccccc3)cc2)C(Cc2ccccc2)C(O)C(O)C(Cc2ccccc2)N1Cc1ccc(OCc2ccccc2)cc1 (centres unmarked) [Example 5P], the melting point is reported as 80 to 81 °C, the IC90 (HIV-1 (RF) in MT-2 cells; [2]) is reported as > 100 µg/mL and the Ki [1] is reported as > 1 µM.

With O=C1N(Cc2ccc(F)cc2)C(Cc2ccccc2)C(O)C(O)C(Cc2ccccc2)N1Cc1ccc2ccccc2c1 (centres unmarked) [Example 5Q] the melting point was 105 to 107 °C, the IC90 (HIV-1 (RF) in MT-2 cells; [2]) was < 10 µg/mL and the Ki [1] was < 0.01 µM.

For O=C1N(Cc2ccc(O)cc2)C(Cc2ccccc2)C(O)C(O)C(Cc2ccccc2)N1Cc1ccc(O)cc1 (centres unmarked) [Example 5R], the melting point was 115 to 117 °C, the IC90 (HIV-1 (RF) in MT-2 cells; [2]) was < 10 µg/mL and the Ki [1] was < 0.01 µM.

With O=C1N(Cc2cccc(CO)c2)C(Cc2ccccc2)C(O)C(O)C(Cc2ccccc2)N1Cc1cccc(CO)c1 (centres unmarked) [Example 5S] the melting point was 94 to 95 °C, the IC90 (HIV-1 (RF) in MT-2 cells; [2]) was < 10 µg/mL and the Ki [1] was < 0.01 µM.

With O=Cc1cccc(CN2C(=O)N(Cc3cccc(C=O)c3)C(Cc3ccccc3)C(O)C(O)C2Cc2ccccc2)c1 (centres unmarked) [Example 5V] the melting point was 175 to 176 °C, the IC90 (HIV-1 (RF) in MT-2 cells; [2]) was < 10 µg/mL and the Ki [1] was < 0.01 µM.

In the case of N#Cc1ccc(CN2C(=O)N(Cc3ccc(C#N)cc3)C(Cc3ccccc3)C(O)C(O)C2Cc2ccccc2)cc1 (centres unmarked) [Example 5W], the melting point is reported as 140 to 143 °C, the IC90 (HIV-1 (RF) in MT-2 cells; [2]) is reported as < 10 µg/mL and the Ki [1] is reported as < 0.01 µM.

In the case of O=Cc1ccc(CN2C(=O)N(Cc3ccc(C=O)cc3)C(Cc3ccccc3)C(O)C(O)C2Cc2ccccc2)cc1 (centres unmarked) [Example 5X], the melting point is reported as 90 to 91 °C, the IC90 (HIV-1 (RF) in MT-2 cells; [2]) is reported as < 10 µg/mL and the Ki [1] is reported as < 0.01 µM.

For CC(C)N1C(=O)N(Cc2cccc(O)c2)C(Cc2ccccc2)C(O)C(O)C1Cc1ccccc1 (centres unmarked) [Example 5Z], the melting point was 212 to 213 °C, the IC90 (HIV-1 (RF) in MT-2 cells; [2]) was < 10 µg/mL and the Ki [1] was < 0.01 µM.

In the case of O=C1N(Cc2cccc(C=NO)c2)C(Cc2ccccc2)C(O)C(O)C(Cc2ccccc2)N1Cc1cccc(C=NO)c1 (centres unmarked) [Example 6C], the melting point is reported as 185 to 189 °C, the IC90 (HIV-1 (RF) in MT-2 cells; [2]) is reported as < 10 µg/mL and the Ki [1] is reported as < 0.01 µM.

With O=C1N(Cc2cccc(Cl)c2)C(Cc2ccccc2)C(O)C(O)C(Cc2ccccc2)N1Cc1cccc(Cl)c1 (centres unmarked) [Example 6X] the melting point was 210.3 °C, the IC90 (HIV-1 (RF) in MT-2 cells; [2]) was < 10 µg/mL and the Ki [1] was < 0.01 µM.

O=C1N(Cc2cc(F)cc(F)c2)C(Cc2ccccc2)C(O)C(O)C(Cc2ccccc2)N1Cc1cc(F)cc(F)c1 (centres unmarked) [Example 6ZC] gave a melting point of 167.9 °C, an IC90 (HIV-1 (RF) in MT-2 cells; [2]) of 10 to 100 µg/mL (≈ 17.3 to 173 µM) and a Ki [1] of 0.01 to 1 µM.

For O=C1N(Cc2cccc(Br)c2)C(Cc2ccccc2)C(O)C(O)C(Cc2ccccc2)N1Cc1cccc(Br)c1 (centres unmarked) [Example 6ZE], the melting point was 210.7 °C, the IC90 (HIV-1 (RF) in MT-2 cells; [2]) was < 10 µg/mL and the Ki [1] was < 0.01 µM.

In the case of O=C1NC(Cc2ccccc2)C(O)C(O)C(Cc2ccccc2)N1Cc1ccc(F)cc1 (centres unmarked) [Example 6ZF], the melting point is reported as 188.9 °C, the IC90 (HIV-1 (RF) in MT-2 cells; [2]) is reported as < 10 µg/mL and the Ki [1] is reported as < 0.01 µM.

For O=C1N(Cc2cc(Cl)cc(Cl)c2)C(Cc2ccccc2)C(O)C(O)C(Cc2ccccc2)N1Cc1cc(Cl)cc(Cl)c1 (centres unmarked) [Example 6ZJ], the melting point was 231.1 °C, the IC90 (HIV-1 (RF) in MT-2 cells; [2]) was 10 to 100 µg/mL (≈ 15.5 to 155 µM) and the Ki [1] was 0.01 to 1 µM.

With O=C1N(Cc2cccc([N+](=O)[O-])c2)C(Cc2ccccc2)C(O)C(O)C(Cc2ccccc2)N1Cc1cccc([N+](=O)[O-])c1 (centres unmarked) [Example 6Z] the melting point was 248.3 °C, the IC90 (HIV-1 (RF) in MT-2 cells; Human immunodeficiency virus 1, MT2) was < 10 µg/mL and the Ki [1] was < 0.01 µM.

With O=C1c2ccccc2C(O)C(O)c2ccccc21 (centres unmarked) [Example 26A, 5H-dibenzo [A,D] cyclohepten-5-one-10,11-dihydro-10, 11-diol] the melting point was 107.5 to 108 °C and 107.5 to 107.9 °C and the Ki [1] was > 1 µM.
